{"source": "patent US10736883B2", "about": "“Triazole furan compounds as agonists of the APJ receptor” (AMGEN INC., priority 2016, dated 2020)", "molecular_target": "APJ receptor (Homo sapiens (Human), UniProt P35414)", "sequence (P35414 whole entry)": "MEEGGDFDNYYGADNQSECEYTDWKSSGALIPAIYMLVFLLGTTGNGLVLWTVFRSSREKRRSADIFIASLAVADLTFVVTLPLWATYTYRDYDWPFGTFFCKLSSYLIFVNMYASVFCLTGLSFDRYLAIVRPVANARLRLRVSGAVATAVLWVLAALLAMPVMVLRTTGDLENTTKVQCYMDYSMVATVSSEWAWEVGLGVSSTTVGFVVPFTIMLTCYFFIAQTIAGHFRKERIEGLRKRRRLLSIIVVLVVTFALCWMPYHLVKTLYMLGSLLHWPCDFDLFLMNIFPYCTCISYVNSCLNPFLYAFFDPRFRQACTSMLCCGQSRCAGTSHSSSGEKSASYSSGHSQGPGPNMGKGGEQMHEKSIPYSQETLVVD", "experiment": "[35S]GTPγS binding assay on membranes from CHO cells stably expressing human APJ receptor", "type": "biochemical", "settings": "membranes of CHO cells stably expressing human APJ receptor, means of several independent experiments, read-out: Activity hAPJ SPA EC50 IP", "method_in_brief": "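Membranes from CHO cells stably expressing human APJ were incubated with 0.2 nM [35S]GTPγS and ligands for 90 min at RT in 20 mM HEPES pH 7.5, 5 mM MgCl2, 200 mM NaCl, 3 μM GDP, 0.1% BSA with WGA PS beads. Nonspecific binding was set with 100 μM GTPγS. EC50 came from non-linear regression.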", "data": [{"smiles": "COc1cccc(OC)c1-n1c(NS(=O)(=O)C[C@H](O)c2ccc(Cl)cc2S(C)(=O)=O)nnc1-c1ccc(C)o1", "note": "(single isomer, unassigned) [Example 144.0, (2R)-2-(4-Chloro-2-(methylsulfonyl)phenyl)-N-(4-(2,6-dimethoxyphenyl)-5-(5-methyl-2-furanyl)-4H-1,2,4-triazol-3-yl)-2-hydroxyethanesulfonamide or (2S)-2-(4-chloro-2-(methylsulfonyl)phenyl)-N-(4-(2,6-dimethoxyphenyl)-5-(5-methyl-2-furanyl)-4H-1,2,4-triazol-3-yl)-2-hydroxyethanesulfonamide]", "values": [{"measurement": "EC50", "result": 0.073, "unit": "nM"}]}, {"smiles": "COc1cnc([C@@H](O)[C@H](C)S(=O)(=O)Nc2nnc(-c3ccc(C)o3)n2-c2c(OC)cccc2OC)cn1", "note": "(single isomer, unassigned) [Example 146.0, (1R, 2S)—N-(4-(2,6-Dimethoxyphenyl)-5-(5-methyl-2-furanyl)-4H-1,2,4-triazol-3-yl)-1-hydroxy-1-(5-methoxy-2-pyrazinyl)-2-propanesulfonamide or (1S, 2R)—N-(4-(2,6-dimethoxyphenyl)-5-(5-methyl-2-furanyl)-4H-1,2,4-triazol-3-yl)-1-hydroxy-1-(5-methoxy-2-pyrazinyl)-2-propanesulfonamide]", "values": [{"measurement": "EC50", "result": 0.13, "unit": "nM"}]}, {"smiles": "COC[C@H]1CCCC(=O)N1C[C@@H](C)S(=O)(=O)Nc1nnc(-c2ccc(C)o2)n1-c1c(OC)cccc1OC", "note": "(single isomer, unassigned) [Example 150.0]", "values": [{"measurement": "EC50", "result": 0.22, "unit": "nM"}]}, {"smiles": "COc1cccc(OC)c1-n1c(NS(=O)(=O)[C@@H](C)[C@@H](O)c2ccc(Cl)cc2S(C)(=O)=O)nnc1-c1ccc(C)o1", "note": "(single isomer, unassigned) [Example 153.0, (1R,2R)-1-(4-Chloro-2-(methylsulfonyl)phenyl)-N-(4-(2,6-dimethoxyphenyl)-5-(5-methyl-2-furanyl)-4H-1,2,4-triazol-3-yl)-1-hydroxy-2-propanesulfonamide or (1S,2S)-1-(4-chloro-2-(methylsulfonyl)phenyl)-N-(4-(2,6-dimethoxyphenyl)-5-(5-methyl-2-furanyl)-4H-1,2,4-triazol-3-yl)-1-hydroxy-2-propanesulfonamide]", "values": [{"measurement": "EC50", "result": 0.26, "unit": "nM"}]}, {"smiles": "CCOC(=O)[C@@H]1C[C@H](S(=O)(=O)Nc2nnc(-c3ccco3)n2-c2c(OC)cccc2OC)CN(c2ncc(F)cn2)C1", "note": "(single isomer, unassigned) [Example 156.0, Ethyl (3R,5S)-5-((4-(2,6-Dimethoxyphenyl)-5-(2-furanyl)-4H-1,2,4-triazol-3-yl)sulfamoyl)-1-(5-fluoro-2-pyrimidinyl)-3-piperidinecarboxylate or Ethyl (3S,5R)-5-((4-(2,6-dimethoxyphenyl-5-(2-furanyl)-4H-1,2,4-triazol-3-yl)sulfamoyl)-1-(5-fluoro-2-pyrimidinyl)-3-piperidinecarboxylate]", "values": [{"measurement": "EC50", "result": 0.36, "unit": "nM"}]}, {"smiles": "COc1cccc(OC)c1-n1c(NS(=O)(=O)[C@@H](C)[C@H](O)c2ccc(Cl)cc2S(C)(=O)=O)nnc1-c1ccc(C)o1", "note": "(single isomer, unassigned) [Example 157.0, (1R,2S)-1-(4-Chloro-2-(methylsulfonyl)phenyl)-N-(4-(2,6-dimethoxyphenyl)-5-(5-methyl-2-furanyl)-4H-1,2,4-triazol-3-yl)-1-hydroxy-2-propanesulfonamide or (1S,2R)-1-(4-chloro-2-(methylsulfonyl)phenyl)-N-(4-(2,6-dimethoxyphenyl)-5-(5-methyl-2-furanyl)-4H-1,2,4-triazol-3-yl)-1-hydroxy-2-propanesulfonamide]", "values": [{"measurement": "EC50", "result": 0.39, "unit": "nM"}]}, {"smiles": "COc1cccc(OC)c1-n1c(NS(=O)(=O)[C@H]2C[C@@H](C(=O)N3CCC3)CN(c3ncc(F)cn3)C2)nnc1-c1ccco1", "note": "(single isomer, unassigned) [Example 162.0, (3R,5S)-5-(1-Azetidinylcarbonyl)-N-(4-(2,6-dimethoxyphenyl)-5-(2-furanyl)-4H-1,2,4-triazol-3-yl)-1-(5-fluoro-2-pyrimidinyl)-3-piperidinesulfonamide or (3S,5R)-5-(1-azetidinylcarbonyl)-N-(4-(2,6-dimethoxyphenyl)-5-(2-furanyl)-4H-1,2,4-triazol-3-yl)-1-(5-fluoro-2-pyrimidinyl)-3-piperidinesulfonamide]", "values": [{"measurement": "EC50", "result": 0.68, "unit": "nM"}]}, {"smiles": "COc1cccc(OC)c1-n1c(NS(=O)(=O)CCN2C(=O)N(C)CC[C@@H]2C)nnc1-c1ccc(C)o1", "note": "(single isomer, unassigned) [Example 164.0, N-(4-(2,6-Dimethoxyphenyl)-5-(5-methyl-2-furanyl)-4H-1,2,4-triazol-3-yl)-2-((6S)-3,6-dimethyl-2-oxotetrahydro-1(2H)-pyrimidinyl)ethanesulfonamide or N-(4-(2,6-dimethoxyphenyl)-5-(5-methyl-2-furanyl)-4H-1,2,4-triazol-3-yl)-2-((6R)-3,6-dimethyl-2-oxotetrahydro-1(2H)-pyrimidinyl)ethanesulfonamide]", "values": [{"measurement": "EC50", "result": 0.74, "unit": "nM"}]}, {"smiles": "COc1cccc(OC)c1-n1c(NS(=O)(=O)[C@H]2C[C@@H](O)CN(c3ncc(F)cn3)C2)nnc1-c1ccco1", "note": "(single isomer, unassigned) [Example 167.0, (3S,5R)—N-(4-(2,6-Dimethoxyphenyl)-5-(2-furanyl)-4H-1,2,4-triazol-3-yl)-1-(5-fluoro-2-pyrimidinyl)-5-hydroxy-3-piperidinesulfonamide or (3R,5S)—N-(4-(2,6-dimethoxyphenyl)-5-(2-furanyl)-4H-1,2,4-triazol-3-yl)-1-(5-fluoro-2-pyrimidinyl)-5-hydroxy-3-piperidinesulfonamide]", "values": [{"measurement": "EC50", "result": 0.94, "unit": "nM"}]}, {"smiles": "COc1cccc(OC)c1-n1c(NS(=O)(=O)CCN2C(=O)[C@@H](C)C[C@]2(C)C#N)nnc1-c1ccco1", "note": "(single isomer, unassigned) [Example 168.0]", "values": [{"measurement": "EC50", "result": 0.97, "unit": "nM"}]}, {"smiles": "COc1cccc(OC)c1-n1c(NS(=O)(=O)[C@@H]2C[C@@H](c3ccc(F)cc3)CN(C(C)=O)C2)nnc1-c1ccc(C)o1", "note": "(single isomer, unassigned) [Example 171.0, (3R,5S)-1-Acetyl-N-(4-(2,6-dimethoxyphenyl)-5-(5-methyl-2-furanyl)-4H-1,2,4-triazol-3-yl)-5-(4-fluorophenyl)-3-piperidinesulfonamide or (3S,5R)-1-acetyl-N-(4-(2,6-dimethoxyphenyl)-5-(5-methyl-2-furanyl)-4H-1,2,4-triazol-3-yl)-5-(4-fluorophenyl)-3-piperidinesulfonamide]", "values": [{"measurement": "EC50", "result": 1.2, "unit": "nM"}]}, {"smiles": "COc1cccc(OC)c1-n1c(NS(=O)(=O)[C@H]2CC[C@H]3CCCC(=O)N3C2)nnc1-c1ccc(C)o1", "note": "(single isomer, unassigned) [Example 173.0]", "values": [{"measurement": "EC50", "result": 1.6, "unit": "nM"}]}, {"smiles": "COc1cccc(OC)c1-n1c(NS(=O)(=O)[C@@H]2C[C@H](C#N)CN(c3ncc(F)cn3)C2)nnc1-c1ccc(C)o1", "note": "(single isomer, unassigned) [Example 174.0, (3R,5S)-5-Cyano-N-(4-(2,6-dimethoxyphenyl)-5-(5-methyl-2-furanyl)-4H-1,2,4-triazol-3-yl)-1-(5-fluoro-2-pyrimidinyl)-3-piperidinesulfonamide or (3S,5R)-5-cyano-N-(4-(2,6-dimethoxyphenyl)-5-(5-methyl-2-furanyl)-4H-1,2,4-triazol-3-yl)-1-(5-fluoro-2-pyrimidinyl)-3-piperidinesulfonamide]", "values": [{"measurement": "EC50", "result": 1.9, "unit": "nM"}]}, {"smiles": "COc1cccc(OC)c1-n1c(NS(=O)(=O)CCN2C(=O)[C@H](C)C[C@H]2C)nnc1-c1ccco1", "note": "(single isomer, unassigned) [Example 175.0]", "values": [{"measurement": "EC50", "result": 1.9, "unit": "nM"}]}, {"smiles": "COc1cnc([C@H](O)[C@@H](C)S(=O)(=O)Nc2nnc(-c3ccc(C)o3)n2-c2c(OC)cccc2OC)cn1", "note": "(single isomer, unassigned) [Example 177.0, (1S,2R)—N-(4-(2,6-Dimethoxyphenyl)-5-(5-methyl-2-furanyl)-4H-1,2,4-triazol-3-yl)-1-hydroxy-1-(5-methoxy-2-pyrazinyl)-2-propanesulfonamide or (1R,2S)—N-(4-(2,6-dimethoxyphenyl)-5-(5-methyl-2-furanyl)-4H-1,2,4-triazol-3-yl)-1-hydroxy-1-(5-methoxy-2-pyrazinyl)-2-propanesulfonamide]", "values": [{"measurement": "EC50", "result": 2.8, "unit": "nM"}]}, {"smiles": "COc1cccc(OC)c1-n1c(NS(=O)(=O)[C@H]2C[C@H](OC)CN(c3ncc(F)cn3)C2)nnc1-c1ccco1", "note": "(single isomer, unassigned) [Example 178.0]", "values": [{"measurement": "EC50", "result": 3, "unit": "nM"}]}, {"smiles": "COC[C@H]1CCCC(=O)N1C[C@@H](C)S(=O)(=O)Nc1nnc(-c2ccc(C)o2)n1-c1c(OC)cccc1OC", "note": "(single isomer, unassigned) [Example 185.0]", "values": [{"measurement": "EC50", "result": 33, "unit": "nM"}]}, {"smiles": "COc1cccc(OC)c1-n1c(NS(=O)(=O)[C@H]2CNC[C@H](c3ccc(F)cc3)C2)nnc1-c1ccco1", "note": "(single isomer, unassigned) [Example 188.0, (3R,5S)—N-(4-(2,6-Dimethoxyphenyl)-5-(2-furanyl)-4H-1,2,4-triazol-3-yl)-5-(4-fluorophenyl)-3-piperidinesulfonamide or (3S,5R)—N-(4-(2,6-dimethoxyphenyl)-5-(2-furanyl)-4H-1,2,4-triazol-3-yl)-5-(4-fluorophenyl)-3-piperidinesulfonamide]", "values": [{"measurement": "EC50", "result": 75, "unit": "nM"}]}, {"smiles": "COc1cccc(OC)c1-n1c(NS(=O)(=O)C2C[C@@H]2c2ccc(Cl)cc2)nnc1-c1ccco1", "note": "(single isomer, unassigned) [Example 191.0, (1R,2S)-2-(4-Chlorophenyl)-N-(4-(2,6-dimethoxyphenyl)-5-(2-furanyl)-4H-1,2,4-triazol-3-yl)cyclopropanesulfonamide or (1S,2R)-2-(4-chlorophenyl)-N-(4-(2,6-dimethoxyphenyl)-5-(2-furanyl)-4H-1,2,4-triazol-3-yl)cyclopropanesulfonamide]", "values": [{"measurement": "EC50", "result": 15, "unit": "nM"}]}, {"smiles": "COc1cccc(OC)c1-n1c(NS(=O)(=O)[C@@H]2C[C@H]2c2ccc(Cl)cc2)nnc1-c1ccco1", "note": "(single isomer, unassigned) [Example 192.0, (1R,2S)-2-(4-Chlorophenyl)-N-(4-(2,6-dimethoxyphenyl)-5-(2-furanyl)-4H-1,2,4-triazol-3-yl)cyclopropanesulfonamide or (1S,2R)-2-(4-chlorophenyl)-N-(4-(2,6-dimethoxyphenyl)-5-(2-furanyl)-4H-1,2,4-triazol-3-yl)cyclopropanesulfonamide]", "values": [{"measurement": "EC50", "result": 2.8, "unit": "nM"}]}]}
